Results taken from patent publication US20030139470A1, “3,4-dihydroxybenzyl-substituted carbonic acid derivatives and the use thereof as antioxidants” (priority 2000, published 2003).

What was measured:
[1] = DPPH test for the removal of free radicals (activity as free-radical scavengers); settings: DPPH 100 μmol/l in methanol, absorption at 515 nm
Method: The activity of the exemplary compounds as free-radical scavengers was compared with that of conventional free-radical scavengers. For this purpose, the DPPH-(1,1-diphenyl-2-picrylhydrazyl) test for the removal of free radicals was used.
DPPH was dissolved in methanol to a concentration of 100 μmol/l. A series of dilutions of the exemplary compounds, vitamin C, α-tocopherol and 3,5-di-tert-butyl-4-hydroxytoluene were prepared in methanol. Methanol served as the control. 2500 μl of the DPPH solution were mixed with 500 μl of each test solution and the decrease in absorption at 515 nm was read until the decrease was less than 2% per hour. The activity of the test substances as free-radical scavengers was calculated according to the following equation:
Activity as free-radical scavenger (%)=100−(absorption of the test compounds)/(absorption of the control)×100.
The activity as free-radical scavenger (%) in a series of dilutions of test compounds was used to calculate, for each test compound, the effective relative concentration EC50 (based on the starting concentration of DPPH, EC=c(test compound)/c(DPPH)) of a test compound at which 50% of the free radical DPPH had been removed.

[2] = Accelerated autoxidation of lipids by air, Rancimat apparatus, soybean oil; settings: antioxidative index = IP(with test solution)/IP(control sample), soybean oil purified over alumina grade N
Method: (§1) The activity of the exemplary compounds as antioxidants was compared with that of conventional antioxidants. The test system used was the accelerated autoxidation of lipids by air with or without antioxidant using the Rancimat apparatus (Rancimat is a registered trademark of Metrohm AG, Herisau, Switzerland).
(§2) The exemplary compounds, vitamin C, α-tocopherol and 3,5-di-tert-butyl-4-hydroxytoluene were dissolved in methanol or acetone, and 100 μl of each test solution was added to a 3 g prepared oil sample. In a control sample, only solvent was added. A constant stream of dry air (20 l/h) was bubbled through the heated oil sample which contained the test solution, and the volatile oxidation products (predominantly short-chain fatty acids such as formic acid or acetic acid) were collected in a receiver containing water. The conductivity of this aqueous solution was continuously measured and documented. The oxidation of (unsaturated) fats proceeds only very slowly for some time and then suddenly increases. The time to the increase is referred to as the induction period (IP).
(§3) The following equation was used to calculate the antioxidative index (AOI):
(§4) AOI=IP(with test solution)/IP(control sample).

[3] = Accelerated autoxidation of lipids by air, Rancimat apparatus, squalene; settings: antioxidative index = IP(with test solution)/IP(control sample), squalene purified over alumina grade N, stabilized with 1 ppm α-tocopherol
Method: as §1, §2, §3, §4
The results for the experiment at 80° C. in squalene that has been purified over alumina grade N and stabilized with 1 ppm of α-tocopherol are given in Table 4: […]

SMILES | EC50 (effective relative concentration, c(test compound)/c(DPPH), at which 50% of the free radical DPPH had been removed) [1] [mol/mol] | AOI in soybean oil at 100° C. with 0.05% test substance [2] | AOI in squalene at 80° C. with 0.005% test substance [3]
Cc1cc(C(C)(C)C)c(O)c(C(C)(C)C)c1 [3,5-Di-tert-butyl-4-hydroxytoluene, reference compound] | 0.24 | 4.8 | 38
COC(=O)NCc1ccc(O)c(O)c1 [Example 1, N-(3,4-Dihydroxybenzyl)-O-methylurethane] | 0.29 | 7.2 | 34
CC(C)[C@@H]1CC[C@@H](C)C[C@H]1OC(=O)NCc1ccc(O)c(O)c1 [Example 2, N-(3,4-Dihydroxybenzyl)-O-[(1R,3R,4S)menthyl]urethane] | 0.36 | 6.5 | 48
CCCCCCOC(=O)NCc1ccc(O)c(O)c1 [Example 3, N-(3,4-Dihydroxybenzyl)-O-hexylurethane] | 0.19 | 14.5 | 49
CCCCC(CC)COC(=O)NCc1ccc(O)c(O)c1 (centres unmarked) [Example 4, N-(3,4-Dihydroxybenzyl)-O-(2-ethylhexyl)urethane] | 0.13 | 10.7 | 45

Second part, led by results:

EC50 (effective relative concentration, c(test compound)/c(DPPH), at which 50% of the free radical DPPH had been removed) [1] [mol/mol] | SMILES | AOI in soybean oil at 100° C. with 0.05% test substance [2] | AOI in squalene at 80° C. with 0.005% test substance [3]
0.06 | CCCCCCNC(=S)NCc1ccc(O)c(O)c1 [Example 5, N-(3,4-Dihydroxybenzyl)-N′-hexylthiourea] | – | 62
0.27 | O=C1O[C@H]([C@@H](O)CO)C(O)=C1O [Vitamin C, reference compound] | 1.2 | 0.7
0.25 | Cc1c(C)c2c(c(C)c1O)CC[C@@](C)(CCC[C@H](C)CCC[C@H](C)CCCC(C)C)O2 [α-Tocopherol, reference compound] | 5.1 | 39
